Reference: US9932338B2, “Compounds having muscarinic receptor antagonist and BETA2 adrenergic receptor agonist activity” (CHIESI FARMACEUTICI S.P.A., priority 2015, dated 2018)

How the values were obtained:
Human M3 receptor = biological target: T1, Human M3 receptor (Homo sapiens, UniProt P20309); assay: M3 receptor radioligand binding assay; conditions: human M3 receptor membranes, [N-methyl-3H] scopolamine methyl chloride; Ki from IC50 by Cheng and Prusoff; read-out: M3 binding affinity (Ki class)
T1 construct: purchased Perkin Elmer
Method: Example. M3 Receptor Radioligand Binding Assay
The assay was carried out in 96-well polypropylene plates in a volume of 250 ul. […] The final assay concentration of DMSO was 0.5% (v/v). The plates were sealed and incubated for 2 hours at room temperature on an orbital shaker (slow speed). Membranes were harvested onto 96-well unifilter GF/C filter plates pre-treated with 0.5% polyethyleneimine (v/v), using a filter manifold, washed four times with 200 μl of assay buffer. The plates were dried before addition of 50 μl of microscint-0, sealed then read in a Trilux Microbeta scintillation counter. IC50 values are determined from competition curves using a non-linear curve fitting program. Ki values were calculated from IC50 values by the Cheng and Prusoff equation.

Human β2 adrenoceptor = biological target: T2, Human β2 adrenoceptor (Homo sapiens, UniProt P07550); assay: β2 adrenoceptor radioligand binding assay; conditions: human β2 adrenoceptor membranes, 125-I cyanopindolol; Ki from IC50 by Cheng and Prusoff; read-out: B2 binding affinity (Ki class)
T2 construct: purchased Perkin Elmer
Method: Example. β2 Adrenoceptor Radioligand Binding Assay
Human β2 adrenoceptor membranes (7.5 ug/well) from Perkin Elmer were incubated with 0.3 nM 125-I Cyanopindolol with or without test compounds, or a saturating concentration of s-propranolol (2 μM) for the determination of non-specific binding. The assay was carried out in 96-well polypropylene plates in a volume of 200 ul. The assay buffer used was 25 mM HEPES, 0.5% BSA (w/v), 1 mM EDTA, 0.02% ascorbic acid (v/v), (pH 7.4). The final assay concentration of DMSO was 0.5% (v/v). The plates were sealed and incubated for 1 hour at room temperature on an orbital shaker (slow speed). Membranes were harvested onto 96-well unifilter GF/C filter plates pre-treated with 0.5% polyethyleneimine (v/v), using a filter manifold, washed six times with 200 μl of wash buffer containing 10 mM HEPES and 500 mM NaCl. The plates were dried before addition of 50 μl of microscint-0, sealed then read in a Trilux Microbeta scintillation counter. IC50 values are determined from competition curves using a non-linear curve fitting program. Ki values were calculated from IC50 values by the Cheng and Prusoff equation.

T2 sequence (P07550 whole entry): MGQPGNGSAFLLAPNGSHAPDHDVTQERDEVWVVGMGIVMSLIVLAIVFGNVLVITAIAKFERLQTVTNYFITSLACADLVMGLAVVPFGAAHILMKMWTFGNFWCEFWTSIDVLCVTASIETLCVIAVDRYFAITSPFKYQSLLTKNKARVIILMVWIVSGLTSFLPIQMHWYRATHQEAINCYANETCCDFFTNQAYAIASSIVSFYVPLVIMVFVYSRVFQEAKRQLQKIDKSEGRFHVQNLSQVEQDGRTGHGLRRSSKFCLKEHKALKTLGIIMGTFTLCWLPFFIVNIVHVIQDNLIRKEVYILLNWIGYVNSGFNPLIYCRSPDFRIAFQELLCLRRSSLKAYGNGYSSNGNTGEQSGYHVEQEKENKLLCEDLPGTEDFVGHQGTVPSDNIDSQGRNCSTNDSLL
T1 sequence (P20309 whole entry): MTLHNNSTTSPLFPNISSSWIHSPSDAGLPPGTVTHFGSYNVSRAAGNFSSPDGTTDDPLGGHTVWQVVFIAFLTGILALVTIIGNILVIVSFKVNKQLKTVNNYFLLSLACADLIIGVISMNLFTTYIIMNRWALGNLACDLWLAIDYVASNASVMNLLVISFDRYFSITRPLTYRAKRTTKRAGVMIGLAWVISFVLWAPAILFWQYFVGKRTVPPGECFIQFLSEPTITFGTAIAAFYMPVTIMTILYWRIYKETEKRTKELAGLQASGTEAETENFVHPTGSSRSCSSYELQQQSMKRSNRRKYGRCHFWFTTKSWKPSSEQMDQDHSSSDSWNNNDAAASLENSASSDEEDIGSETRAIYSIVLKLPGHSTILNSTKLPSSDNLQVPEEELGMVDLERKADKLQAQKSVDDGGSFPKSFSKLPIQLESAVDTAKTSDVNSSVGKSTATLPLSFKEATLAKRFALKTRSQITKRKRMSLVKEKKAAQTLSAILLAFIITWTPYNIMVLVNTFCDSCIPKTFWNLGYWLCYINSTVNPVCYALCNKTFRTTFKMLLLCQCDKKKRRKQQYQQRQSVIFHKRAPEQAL

| SMILES | Ki (Human M3 receptor) | Ki (Human β2 adrenoceptor) |
| --- | --- | --- |
| O=C(NC1(C(=O)OCC2CCN(Cc3cccc(O)c3)CC2)CCc2ccccc21)c1cccc(OCCCCCCNC[C@H](O)c2ccc(O)c3[nH]c(=O)ccc23)c1 (stereo partly drawn) [Compound 11, (1-(3-hydroxybenzyl)piperidin-4-yl)methyl 1-(3-((6-(((R)-2-hydroxy-2-(8-hydroxy-2-oxo-1,2-dihydroquinolin-5-yl)ethyl)amino)hexyl)oxy)benzamido)-2,3-dihydro-1H-indene-1-carboxylate] | 1 to 10 nM | > 10 nM |
| O=C(NC1(C(=O)O[C@H]2CN3CCC2CC3)CCc2ccccc21)c1cccc(COCCCCNC[C@H](O)c2ccc(O)c3[nH]c(=O)ccc23)c1 (stereo partly drawn) [Compound 12, (R)-quinuclidin-3-yl 1-(3-((4-(((R)-2-hydroxy-2-(8-hydroxy-2-oxo-1,2-dihydroquinolin-5-yl)ethyl)amino)butoxy)methyl)benzamido)-2,3-dihydro-1H-indene-1-carboxylate] | 1 to 10 nM | > 10 nM |
| O=C(NC1(C(=O)O[C@H]2CN3CCC2CC3)Cc2ccccc2C1)c1cccc(OCCCCCNC[C@H](O)c2ccc(O)c3[nH]c(=O)ccc23)c1 [Compound 13, (R)-quinuclidin-3-yl 2-(3-((5-(((R)-2-hydroxy-2-(8-hydroxy-2-oxo-1,2-dihydroquinolin-5-yl)ethyl)amino)pentyl)oxy)benzamido)-2,3-dihydro-1H-indene-2-carboxylate] | < 1 nM | 1 to 10 nM |
| O=C(NCCCCNC[C@H](O)c1ccc(O)c2[nH]c(=O)ccc12)c1ccc(CNC2(C(=O)O[C@H]3CN4CCC3CC4)Cc3ccccc3C2)s1 [Compound 14, (R)-quinuclidin-3-yl 2-(((5-((4-(((R)-2-hydroxy-2-(8-hydroxy-2-oxo-1,2-dihydroquinolin-5-yl)ethyl)amino)butyl)carbamoyl)thiophen-2-yl)methyl)amino)-2,3-dihydro-1H-indene-2-carboxylate] | < 1 nM | 1 to 10 nM |
| O=C(NCCCCNC[C@H](O)c1ccc(O)c2[nH]c(=O)ccc12)c1ccc(CNC2(C(=O)OCC3CCN(Cc4cccc(O)c4)CC3)CCc3ccccc32)s1 (stereo partly drawn) [Compound 15, (1-(3-hydroxybenzyl)piperidin-4-yl)methyl 1-(((5-((4-(((R)-2-hydroxy-2-(8-hydroxy-2-oxo-1,2-dihydroquinolin-5-yl)ethyl)amino)butyl)carbamoyl)thiophen-2-yl)methyl)amino)-2,3-dihydro-1H-indene-1-carboxylate] | < 1 nM | 1 to 10 nM |
| O=C(NCCCCNC[C@H](O)c1ccc(O)c2[nH]c(=O)ccc12)c1ccc(CNC2(C(=O)OCC3CCN(Cc4ccccc4)CC3)CCc3ccccc32)s1 (stereo partly drawn) [Compound 16, (1-benzylpiperidin-4-yl)methyl 1-(((5-((4-(((R)-2-hydroxy-2-(8-hydroxy-2-oxo-1,2-dihydroquinolin-5-yl)ethyl)amino)butyl)carbamoyl)thiophen-2-yl)methyl)amino)-2,3-dihydro-1H-indene-1-carboxylate] | < 1 nM | 1 to 10 nM |
| O=C(NCCCCNC[C@H](O)c1ccc(O)c2[nH]c(=O)ccc12)c1ccc(CNC2(C(=O)OCC3CCN(Cc4cccs4)CC3)CCc3ccccc32)s1 (stereo partly drawn) [Compound 17, (1-(thiophen-2-ylmethyl)piperidin-4-yl)methyl 1-(((5-((4-(((R)-2-hydroxy-2-(8-hydroxy-2-oxo-1,2-dihydroquinolin-5-yl)ethyl)amino)butyl)carbamoyl)thiophen-2-yl)methyl)amino)-2,3-dihydro-1H-indene-1-carboxylate] | < 1 nM | > 10 nM |
| O=C(Cc1ccc(CC(=O)NC2(C(=O)O[C@H]3CN4CCC3CC4)CCc3ccccc32)cc1)Nc1ccc(CNC[C@H](O)c2ccc(O)c3[nH]c(=O)ccc23)cc1 (stereo partly drawn) [Compound 18, (R)-quinuclidin-3-yl 1-(2-(4-(2-((4-((((R)-2-hydroxy-2-(8-hydroxy-2-oxo-1,2-dihydroquinolin-5-yl)ethyl)amino)methyl)phenyl)amino)-2-oxoethyl)phenyl)acetamido)-2,3-dihydro-1H-indene-1-carboxylate] | 1 to 10 nM | > 10 nM |
